Assay results from patent EP3360539A1, “PHARMACEUTICAL FORMULATION” (SapioTec GmbH, priority 2017, dated 2018).
In brackets after ≈: the same amount, converted by molar mass.

Assays:
[1] = in HPBCD (10%); Fuchs et al. 2014; cited from earlier work
[2] = pH 9

## O=C1CN(/N=C/c2ccc(-c3ccc([N+](=O)[O-])cc3)o2)C(O)=N1 [Dantrolen-Natrium]
[1]
  Konzentration des gelösten Dantrolens in Lösung: 0,137 mg/ml
[2]
  Löslichkeit: bemerkenswerte Steigerung der Löslichkeit
physchem; 25% hpbcd in deionized water, Gelöstes Dantrolen-Natrium
  solubility thermodynamic at 24 h: 15.6 mg/mL (≈ 49.6 mM)
physchem; 25% hpbcd in deionized water, pH 9, Gelöstes Dantrolen-Natrium
  solubility thermodynamic at 24 h: 16 mg/mL (≈ 50.9 mM)
physchem; 25% hpbcd, 1% tris, water, pH 9, Gelöstes Dantrolen-Natrium
  solubility thermodynamic at 24 h: 14.4 mg/mL (≈ 45.8 mM)
physchem; water, 25% hpbcd, 2% glycerol, pH 9, organic solvent or mixture, Gelöstes Dantrolen-Natrium
  solubility thermodynamic at 24 h: 9.5 mg/mL (≈ 30.2 mM)
physchem; water, 25% hpbcd, arginine, pH 9, Gelöstes Dantrolen-Natrium
  solubility thermodynamic at 24 h: 8.5 mg/mL (≈ 27 mM)
physchem; water, 25% hpbcd, edta, pH 9, Gelöstes Dantrolen-Natrium
  solubility thermodynamic at 24 h: 3.6 mg/mL (≈ 11.5 mM)
physchem; water, 25% hpbcd, lysine, pH 9, Gelöstes Dantrolen-Natrium
  solubility thermodynamic at 24 h: 15.7 mg/mL (≈ 50 mM)
